# BindingDB's records for doi:10.1021/jm058033i (University of Regensburg, 2006)
# What was measured:
# [1] = Inhibition of DNA synthesis in IL3 dependent FDC-P1 cells expressing KIT V558D mutant
# [2] = Inhibition of DNA synthesis in IL3 dependent FDC-P1 cells expressing wild-type KIT
# [3] = Antiproliferative activity against mouse 32Dcl3 cell line expressing wild-type FLT3
# [4] = Antiproliferative activity against mouse 32Dcl3 cell line expressing FLT3-ITD
IC50 [1],IC50 [2],IC50 [3],IC50 [4],Compound
500 nM,500 nM,,,Cc1cccc2[nH]c(C(=O)c3cc4cc(O)ccc4[nH]3)cc12 [(5-Hydroxy-1H-indol-2-yl)-(4-methyl-1H-indol-2-yl)-methanone]
500 nM,500 nM,100 nM,100 nM,O=C(c1cc2cc(O)ccc2[nH]1)c1cc2cc(O)ccc2[nH]1 [Bis-(5-hydroxy-1H-indol-2-yl)-methanone]
